Test results taken from patent US11096924B2, “Combination therapies using immuno-dash inhibitors and PGE2 antagonists” (Trustees of Tufts College, priority 2016, dated 2021).
Several values for one entry are separate records, joined by “and”; a condition that tells them apart may be missing. Equal values may be shown once. Read-outs that look alike come from different tables or passages of the source.

Experiments:
[1] = target: recombinant human dipeptidyl peptidase II (DPPII) (Homo sapiens (Human), UniProt Q9UHL4); assay: In vitro inhibition assay, dipeptidyl peptidase II; type: biochemical
[2] = target: recombinant human dipeptidyl peptidase IV (DPPIV) (Homo sapiens (Human), UniProt P27487); assay: In vitro inhibition assay, dipeptidyl peptidase IV; type: biochemical
DPP7 = DPP7 (Homo sapiens (Human), UniProt Q9UHL4); assay: EnPlex assay DPP7; type: biochemical
DPP4 = DPP4 (Homo sapiens (Human), UniProt P27487); assay: EnPlex assay DPP4; type: biochemical
[3] = Oral PK profile in mice, plasma drug concentrations; type: in vivo, BALB/c mice; conditions: 3 mg/kg oral gavage, individual mice #1-#3
Description: Example 8. […] Drugs dissolved in pH 2 water at 0.3 mg/mL. […] 2. Plasma prepared by centrifugation. 3. Drug concentrations measured by LCMS.

[4] = target: recombinant human fibroblast activation protein (FAP) (Homo sapiens (Human), UniProt Q12884); assay: In vitro inhibition assay, fibroblast activation protein; type: biochemical
[5] = target: recombinant human dipeptidyl peptidase 8 (DPP8) (Homo sapiens (Human), UniProt Q6V1X1); assay: In vitro inhibition assay, dipeptidyl peptidase 8; type: biochemical
macrophages = assay: Pyroptosis of macrophages in cell culture; type: cell-based; conditions: Macrophage; Example 2 table; unit inferred
RAW 264.7 WT cells = assay: Pyroptosis in RAW 264.7 WT cells; type: cell-based; conditions: Mus musculus, RAW264.7
[6] = tested on: MB49 murine urothelial carcinoma cell line; assay: MB49 efficacy studies in tumor bearing mice; type: in vivo
MV4; 11 Luc-Neo = assay: Pyroptosis in MV4;11 Luc-Neo cells; type: cell-based; conditions: Homo sapiens
THP-1 sgGFP = assay: Pyroptosis in THP-1 sgGFP cells; type: cell-based; conditions: Homo sapiens
[7] = phase I trial of talabostat and rituximab in rituximab-resistant lymphoma; cited from earlier work
[8] = Maximum tolerated dose study (single dose) in Sprague Dawley rats; type: in vivo; conditions: SD rats, based on serum drug levels, with Pyrrophenone or AACOCF3
From the text: Bars show the MTD single dose in SD rats prior to seeing animal death. […] See also FIG. 17 for a similar comparison using cPLA2 inhibitors instead of COX inhibitors.
Bars show the MTD single dose in SD rats prior to seeing animal death. Based on serum drug levels, the addition of a cPLA2 inhibitor to the I-DASH inhibitor increases that MTD dose by at least 20-fold.
Bars show the MTD single dose in SD rats prior to seeing animal death.

[9] = male, BALB/c, mouse, plasma, oral, 3 mg/kg, 5 min post-dose
[10] = male, BALB/c, mouse, plasma, oral, 3 mg/kg, 20 min post-dose
[11] = male, BALB/c, mouse, plasma, oral, 3 mg/kg, 30 min post-dose
[12] = male, BALB/c, mouse, plasma, oral, 3 mg/kg, 40 min post-dose
[13] = male, BALB/c, mouse, plasma, oral, 3 mg/kg, 120 min post-dose
[14] = male, BALB/c, mouse, plasma, oral, 3 mg/kg, 240 min post-dose

Sequence of recombinant human dipeptidyl peptidase IV (DPPIV) (P27487 whole entry): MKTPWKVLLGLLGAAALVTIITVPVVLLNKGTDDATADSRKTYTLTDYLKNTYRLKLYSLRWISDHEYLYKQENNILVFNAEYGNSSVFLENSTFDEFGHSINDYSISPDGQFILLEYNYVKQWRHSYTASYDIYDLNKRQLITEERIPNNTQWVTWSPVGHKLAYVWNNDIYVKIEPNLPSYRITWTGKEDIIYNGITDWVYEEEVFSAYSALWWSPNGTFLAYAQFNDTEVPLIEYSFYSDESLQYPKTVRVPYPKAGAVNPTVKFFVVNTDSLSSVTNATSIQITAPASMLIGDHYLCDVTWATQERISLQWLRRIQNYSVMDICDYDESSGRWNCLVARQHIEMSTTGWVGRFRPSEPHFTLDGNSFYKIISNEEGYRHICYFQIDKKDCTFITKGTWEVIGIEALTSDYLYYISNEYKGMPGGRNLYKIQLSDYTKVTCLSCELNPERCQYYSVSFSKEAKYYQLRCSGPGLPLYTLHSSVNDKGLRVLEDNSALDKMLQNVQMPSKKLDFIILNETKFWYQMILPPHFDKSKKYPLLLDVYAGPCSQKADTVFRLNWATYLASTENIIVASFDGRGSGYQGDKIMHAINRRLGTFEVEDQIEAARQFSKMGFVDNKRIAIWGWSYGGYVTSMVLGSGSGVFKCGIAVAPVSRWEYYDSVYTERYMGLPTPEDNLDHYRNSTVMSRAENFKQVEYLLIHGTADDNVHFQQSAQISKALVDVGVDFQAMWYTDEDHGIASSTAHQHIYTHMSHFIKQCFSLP
Sequence of DPP4 (P27487 whole entry): as above
Sequence of recombinant human fibroblast activation protein (FAP) (Q12884 whole entry): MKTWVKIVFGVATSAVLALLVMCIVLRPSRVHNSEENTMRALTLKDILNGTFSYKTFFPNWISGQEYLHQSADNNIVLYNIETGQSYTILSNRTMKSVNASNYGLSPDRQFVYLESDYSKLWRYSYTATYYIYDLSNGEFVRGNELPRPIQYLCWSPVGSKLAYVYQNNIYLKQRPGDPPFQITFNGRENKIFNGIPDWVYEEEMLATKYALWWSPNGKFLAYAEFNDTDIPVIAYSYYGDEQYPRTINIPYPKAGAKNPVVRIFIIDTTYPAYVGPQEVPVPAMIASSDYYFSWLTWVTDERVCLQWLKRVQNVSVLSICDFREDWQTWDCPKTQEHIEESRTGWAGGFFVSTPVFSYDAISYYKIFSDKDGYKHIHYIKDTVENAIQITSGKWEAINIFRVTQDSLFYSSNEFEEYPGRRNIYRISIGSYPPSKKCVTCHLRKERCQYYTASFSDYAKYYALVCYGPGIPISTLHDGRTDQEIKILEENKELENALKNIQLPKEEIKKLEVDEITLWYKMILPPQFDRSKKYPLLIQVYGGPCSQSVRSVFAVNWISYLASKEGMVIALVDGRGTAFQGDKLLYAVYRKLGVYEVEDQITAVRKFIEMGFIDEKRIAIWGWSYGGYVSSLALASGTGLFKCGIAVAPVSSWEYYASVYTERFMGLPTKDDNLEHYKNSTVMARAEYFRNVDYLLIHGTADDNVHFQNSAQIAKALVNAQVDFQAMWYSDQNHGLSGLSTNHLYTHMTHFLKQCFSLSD
Sequence of recombinant human dipeptidyl peptidase 8 (DPP8) (Q6V1X1 whole entry): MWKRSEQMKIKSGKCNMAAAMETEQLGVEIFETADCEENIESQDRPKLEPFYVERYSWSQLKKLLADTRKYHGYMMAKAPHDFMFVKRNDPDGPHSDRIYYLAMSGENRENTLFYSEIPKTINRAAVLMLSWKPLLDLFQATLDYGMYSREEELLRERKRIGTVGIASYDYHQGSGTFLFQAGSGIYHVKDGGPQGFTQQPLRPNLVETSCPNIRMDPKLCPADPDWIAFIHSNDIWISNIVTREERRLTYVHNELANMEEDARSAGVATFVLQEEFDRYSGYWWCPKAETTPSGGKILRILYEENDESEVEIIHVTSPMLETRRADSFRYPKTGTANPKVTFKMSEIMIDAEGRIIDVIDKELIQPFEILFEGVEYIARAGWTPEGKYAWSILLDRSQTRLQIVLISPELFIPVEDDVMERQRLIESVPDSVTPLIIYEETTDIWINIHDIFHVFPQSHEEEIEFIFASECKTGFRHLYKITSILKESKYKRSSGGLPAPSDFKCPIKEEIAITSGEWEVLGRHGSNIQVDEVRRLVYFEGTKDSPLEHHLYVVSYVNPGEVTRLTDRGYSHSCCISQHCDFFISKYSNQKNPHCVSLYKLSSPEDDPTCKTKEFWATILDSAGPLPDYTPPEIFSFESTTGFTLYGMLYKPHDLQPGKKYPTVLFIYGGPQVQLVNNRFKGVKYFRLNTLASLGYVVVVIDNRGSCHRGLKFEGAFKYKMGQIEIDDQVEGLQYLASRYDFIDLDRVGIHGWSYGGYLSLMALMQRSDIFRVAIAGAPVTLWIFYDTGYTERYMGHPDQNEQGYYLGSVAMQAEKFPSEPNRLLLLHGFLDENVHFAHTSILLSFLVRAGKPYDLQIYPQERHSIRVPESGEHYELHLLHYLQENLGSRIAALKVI

## CC1([C@H](N)C(=O)N2CCC[C@H]2B(O)O)CCCC1 (relative stereo) [4175CP]
[1]; DPP2
  IC50: 9.2 nM
[2]
  IC50: 2.9 nM

## N[C@H](C(=O)N1CCC[C@H]1B(O)O)C12CC3CC(CC(O)(C3)C1)C2 (relative stereo) [ARI-3102A]
[1]; DPP2
  IC50: 81 nM
DPP7
  IC50: > 100 nM

## N[C@H](C(=O)N1CCC[C@H]1B(O)O)C12CC3CC(CC(Cl)(C3)C1)C2 (relative stereo) [ARI-3102C]
DPP4
  IC50: 0.006 nM
[2]
  IC50: 6 nM

## CC1([C@H](N)C(=O)N2CCC[C@H]2B(O)O)CCCCC1 (relative stereo) [ARI-4175CH]
G-CSF; 5 μg/animal PO
  Average [G-CSF] at 6 hrs: 1100 pg/mL
G-CSF; 20 μg/animal PO
  Average [G-CSF] at 6 hrs: 51000 pg/mL
G-CSF; 20 μg/animal SC
  Average [G-CSF] at 6 hrs: 60000 pg/mL
[1]; DPP2
  IC50: 54 nM
DPP4
  IC50: 0.005 nM
DPP7
  IC50: > 100 nM
[3]; 5 min post-dose
  concentration in Plasma: 230 nM and 420 nM
[3]; 10 min post-dose
  concentration in Plasma: 250 nM and 90 nM
[3]; 20 min post-dose
  concentration in Plasma: 230 nM and 270 nM
[3]; 30 min post-dose
  concentration in Plasma: 130 nM
[3]; 40 min post-dose
  concentration in Plasma: 250 nM and 190 nM
[3]; 60 min post-dose
  concentration in Plasma: 0 nM and 90 nM
[3]; 120 min post-dose
  concentration in Plasma: 70 nM and 90 nM
[3]; 240 min post-dose
  concentration in Plasma: 10 nM
[3]; [9]
  concentration at 5 min: 280 nM
[3]; [10]
  concentration at 20 min: 230 nM
[3]; [11]
  concentration at 30 min: 240 nM
[3]; [12]
  concentration at 40 min: 170 nM
[3]; [13]
  concentration at 120 min: 70 nM
[3]; [14]
  concentration at 240 min: 10 nM
[2]
  IC50: 2.8 nM

## CC(C)(F)[C@H](N)C(=O)N1CCC[C@H]1B(O)O (relative stereo) [ARI-4268]
[1]; DPP2
  IC50: 68 nM
[2]
  IC50: 12 nM

## N[C@H](C(=O)N1CCC[C@H]1B(O)O)C12CC3CC(CC(C3)C1)C2 (relative stereo) [ARI-5544, Gly(1-adamantyl)-boroPro]
G-CSF; 5 μg/animal PO
  Average [G-CSF] at 6 hrs: 650 pg/mL
G-CSF; 20 μg/animal PO
  Average [G-CSF] at 6 hrs: 30000 pg/mL
G-CSF; 20 μg/animal SC
  Average [G-CSF] at 6 hrs: 73000 pg/mL
[1]; DPP2
  IC50: 27 nM
[1]; compound incubated at room temperature overnight at pH 2.0 or pH 7.4 prior to the assays, read-out: DPPII IC50
  IC50: 21 nM
[3]; 5 min post-dose
  concentration in Plasma: 110 nM and 220 nM
[3]; 20 min post-dose
  concentration in Plasma: 170 nM and 180 nM
[3]; 30 min post-dose
  concentration in Plasma: 220 nM and 170 nM
[3]; 40 min post-dose
  concentration in Plasma: 130 nM and 140 nM
[3]; 60 min post-dose
  concentration in Plasma: 110 nM and 90 nM
[3]; 120 min post-dose
  concentration in Plasma: 30 nM and 50 nM
[3]; 240 min post-dose
  concentration in Plasma: 10 nM and 20 nM
[3]; [9]
  concentration at 5 min: 160 nM
[3]; male, BALB/c, mouse, plasma, oral, 3 mg/kg, 10 min post-dose
  concentration at 10 min: 270 nM
[3]; [10]
  concentration at 20 min: 140 nM
[3]; [11]
  concentration at 30 min: 110 nM
[3]; [12]
  concentration at 40 min: 120 nM
[3]; male, BALB/c, mouse, plasma, oral, 3 mg/kg, 60 min post-dose
  concentration at 60 min: 80 nM
[3]; [13]
  concentration at 120 min: 30 nM
[3]; [14]
  concentration at 240 min: 20 nM

## CC1([C@H](N)C(=O)N2CCC[C@H]2B(O)O)CC1 (relative stereo) [compound 4367]
[1]; DPP2
  IC50: 34 nM
[2]
  IC50: 1.4 nM
[4]
  IC50: 350 nM

## CC1(C)CCCN[C@@H]1C(=O)N1CCC[C@H]1B(O)O (relative stereo) [compound 5349]
[1]; DPP2
  IC50: 610 nM
[5]
  IC50: 250 nM
[2]
  IC50: 92 nM
[4]
  IC50: 14000 nM

## CC1(C)CN[C@@H]1C(=O)N1CCC[C@H]1B(O)O (relative stereo) [compound 5362]
[1]; DPP2
  IC50: 67 nM
[2]
  IC50: 0.5 nM

## CC1(C)CCN[C@@H]1C(=O)N1CCC[C@H]1B(O)O (relative stereo) [compound 5363]
[1]; DPP2
  IC50: 110 nM

## C[C@H](N)C(=S)N1CCC[C@H]1B(O)O [ARI-2243]
G-CSF; 20 μg/animal PO
  Average [G-CSF] at 6 hrs: 330 pg/mL
G-CSF; 50 μg/animal IP
  Average [G-CSF] at 6 hrs: 2100 pg/mL
G-CSF; 100 μg/animal IP
  Average [G-CSF] at 6 hrs: 2400 pg/mL
G-CSF; 300 μg/animal IP
  Average [G-CSF] at 6 hrs: 4400 pg/mL
macrophages
  IC50: 11000 nM

## CC(C)(C)[C@H](N)C(=O)N1CCC[C@H]1B(O)O [ARI-4175]
G-CSF; 20 μg/animal PO
  Average [G-CSF] at 6 hrs: 19000 pg/mL
G-CSF; 20 μg/animal SC
  Average [G-CSF] at 6 hrs: 65000 pg/mL

## N[C@H](C(=O)N1CCC[C@H]1B(O)O)C12CC3CC(CC(F)(C3)C1)C2 [ARI-5870]
[1]; DPP2
  IC50: 58 nM

## NC(N)=NCCC[C@H](N)C(=O)N1CCC[C@H]1B(O)O [Arg-boroPro]
G-CSF; 20 μg/animal PO
  Average [G-CSF] at 6 hrs: 320 pg/mL
G-CSF; 20 μg/animal SC
  Average [G-CSF] at 6 hrs: 160 pg/mL
G-CSF; 200 μg/animal PO
  Average [G-CSF] at 6 hrs: 930 pg/mL
G-CSF; 200 μg/animal SC
  Average [G-CSF] at 6 hrs: 670 pg/mL
G-CSF; 2000 μg/animal PO
  Average [G-CSF] at 6 hrs: 3500 pg/mL
G-CSF; 2000 μg/animal SC
  Average [G-CSF] at 6 hrs: 31000 pg/mL

## N[C@@H](CC(=O)N1CCn2c(nnc2C(F)(F)F)C1)Cc1cc(F)c(F)cc1F [Sitagiptin, reference compound]
G-CSF; 100 μg/animal SC
  Average [G-CSF] at 6 hrs: 100 pg/mL
G-CSF; 1000 μg/animal PO
  Average [G-CSF] at 6 hrs: 340 pg/mL
G-CSF; 2000 μg/animal SC
  Average [G-CSF] at 6 hrs: 950 pg/mL

## CC(C)[C@H](N)C(=O)N1CCC[C@H]1B(O)O [Val-boroPro, Valine-boroProline]
G-CSF; 20 μg/animal PO
  Average [G-CSF] at 6 hrs: 55000 pg/mL
G-CSF; 20 μg/animal SC
  Average [G-CSF] at 6 hrs: 97000 pg/mL
RAW 264.7 WT cells
  IC50: 98 nM
[6]; 20 microgram dose of Val-boroPro plus celecoxib, individual animal curves
  tumor regression in combination with celecoxib: facilitated the achievement of tumor regression
[6]; Val-boroPro plus celecoxib, tumor volumes over time
  antitumor activity in combination with celecoxib: increased the antitumor activity of Val-boroPro markedly (statistically significantly) and in a dose-dependent manner
MV4; 11 Luc-Neo
  IC50: 60 nM
THP-1 sgGFP
  IC50: 168 nM
[7]
  partial response: 3 patients
macrophages
  IC50: 49 nM
[8]
  increase of MTD dose on addition of a cPLA2 inhibitor: at least 20 fold

## Cc1ccc(-c2cc(C(F)(F)F)nn2-c2ccc(S(N)(=O)=O)cc2)cc1 [celecoxib]
[6]; celecoxib alone, various concentrations, versus vehicle
  tumor growth rates: no observed differences in tumor growth rates compared to control

## C[C@H](N)C(=O)N1CCC[C@H]1B(O)O [compound 1129]
macrophages
  IC50: > 10000 nM

## N[C@H](C(=O)N1CCC[C@H]1B(O)O)C1CCCCC1 [compound 1797, Crg-boroPro]
G-CSF; 20 μg/animal PO
  Average [G-CSF] at 6 hrs: 20000 pg/mL
macrophages
  IC50: 23 nM

## CC(C)[C@H](N)C(=S)N1CCC[C@H]1B(O)O [compound 2401]
macrophages
  IC50: > 20000 nM

## CN(CB(O)O)C(=O)[C@@H](N)CCC(=O)O [compound 2408]
macrophages
  IC50: > 10000 nM

## CC[C@H](C)[C@H](N)C(=O)N1CCC[C@H]1B(O)O [compound 4316, theoric-boroPro]
G-CSF; 20 μg/animal PO
  Average [G-CSF] at 6 hrs: 5000 pg/mL
macrophages
  IC50: 21 nM

## CC[C@@H](C)[C@H](N)C(=O)N1CCC[C@H]1B(O)O [compound 4317]
macrophages
  IC50: 13 nM

## N[C@H](C(=O)N1CCC[C@H]1B(O)O)C1(C(F)(F)F)CC1 [compound 4949]
[1]; DPP2
  IC50: 39 nM

## N[C@@H](CCC(=O)O)C(=O)N1CCC[C@H]1B(O)O [compound 8120, Glu-boroPro]
G-CSF; 20 μg/animal PO
  Average [G-CSF] at 6 hrs: 340 pg/mL
G-CSF; 200 μg/animal PO
  Average [G-CSF] at 6 hrs: 160 pg/mL
G-CSF; 200 μg/animal SC
  Average [G-CSF] at 6 hrs: 210 pg/mL
G-CSF; 2000 μg/animal PO
  Average [G-CSF] at 6 hrs: 2300 pg/mL
G-CSF; 2000 μg/animal SC
  Average [G-CSF] at 6 hrs: 16000 pg/mL
